{"source": "ChEMBL document CHEMBL1127453", "about": "“Benzimidazole ribonucleosides: design, synthesis, and antiviral activity of certain 2-(alkylthio)- and 2-(benzylthio)-5,6-dichloro-1-(beta-D-ribofuranosyl)benzimidazoles” (J Med Chem, 1994)", "key": {"Human betaherpesvirus 5 [1]": {"tested_on": "Human betaherpesvirus 5", "assay": "Activity against human cytomegalovirus (HCMV) using plaque reduction assay", "format": "functional, organism-based"}, "HFF cells (Homo sapiens)": {"tested_on": "HFF cells (Homo sapiens)", "assay": "Tested for the visual cytotoxicity on HFF cells at the time of human cytomegalovirus (HCMV) plaque enumeration"}, "Human alphaherpesvirus 1": {"tested_on": "Human alphaherpesvirus 1", "assay": "Tested for anti-viral activity against Herpes simplex virus type-1 using ELISA.", "format": "functional, organism-based"}, "KB": {"tested_on": "KB", "assay": "The inhibition of KB cell growth was determined", "format": "functional, cell-based", "details": "Homo sapiens"}, "Human betaherpesvirus 5 [2]": {"tested_on": "Human betaherpesvirus 5", "assay": "Tested for the activity against human cytomegalovirus (HCMV) using yield reduction assay", "format": "functional"}}, "data": [{"compound": "OC[C@@H]1O[C@@H](n2c(S)nc3cc(Cl)c(Cl)cc32)[C@H](O)[C@@H]1O", "values": [{"measurement": "IC50", "setting": "Human betaherpesvirus 5 [1]", "result": "> 100", "unit": "µM"}, {"measurement": "IC50", "setting": "HFF cells (Homo sapiens)", "result": 100, "unit": "µM"}]}, {"compound": "CSc1nc2cc(Cl)c(Cl)cc2n1[C@@H]1O[C@@H](CO)[C@@H](O)[C@H]1O", "values": [{"measurement": "IC50", "setting": "Human betaherpesvirus 5 [1]", "result": "> 100", "unit": "µM"}, {"measurement": "IC50", "setting": "HFF cells (Homo sapiens)", "result": "> 100", "unit": "µM"}]}, {"compound": "OC[C@H]1OC(n2c(SCc3ccc(Cl)c(Cl)c3)nc3cc(Cl)c(Cl)cc32)[C@H](O)[C@@H]1O", "note": "(some centres not stated)", "values": [{"measurement": "IC50", "setting": "Human alphaherpesvirus 1", "result": "> 30", "unit": "µM"}, {"measurement": "IC50", "setting": "Human betaherpesvirus 5 [1]", "result": 28, "unit": "µM"}, {"measurement": "IC50", "setting": "HFF cells (Homo sapiens)", "result": 32, "unit": "µM"}]}, {"compound": "OC[C@H]1OC(n2c(SCc3ccc(Br)cc3)nc3cc(Cl)c(Cl)cc32)[C@H](O)[C@@H]1O", "note": "(some centres not stated)", "values": [{"measurement": "IC50", "setting": "Human alphaherpesvirus 1", "result": 30, "unit": "µM"}, {"measurement": "IC50", "setting": "Human betaherpesvirus 5 [1]", "result": 30, "unit": "µM"}, {"measurement": "IC50", "setting": "KB", "result": 20, "unit": "µM"}, {"measurement": "IC50", "setting": "HFF cells (Homo sapiens)", "result": 32, "unit": "µM"}]}, {"compound": "C#CCSc1nc2cc(Cl)c(Cl)cc2n1C1O[C@H](CO)[C@@H](O)[C@H]1O", "note": "(some centres not stated)", "values": [{"measurement": "IC50", "setting": "Human alphaherpesvirus 1", "result": 100, "unit": "µM"}, {"measurement": "IC50", "setting": "Human betaherpesvirus 5 [1]", "result": 25, "unit": "µM"}, {"measurement": "IC50", "setting": "KB", "result": 60, "unit": "µM"}, {"measurement": "IC50", "setting": "HFF cells (Homo sapiens)", "result": 100, "unit": "µM"}]}, {"compound": "O=[N+]([O-])c1cccc(CSc2nc3cc(Cl)c(Cl)cc3n2C2O[C@H](CO)[C@@H](O)[C@H]2O)c1", "note": "(some centres not stated)", "values": [{"measurement": "IC50", "setting": "Human alphaherpesvirus 1", "result": 50, "unit": "µM"}, {"measurement": "IC50", "setting": "Human betaherpesvirus 5 [1]", "result": 40, "unit": "µM"}, {"measurement": "IC50", "setting": "KB", "result": 25, "unit": "µM"}, {"measurement": "IC50", "setting": "HFF cells (Homo sapiens)", "result": 32, "unit": "µM"}]}, {"compound": "COc1ccc(CSc2nc3cc(Cl)c(Cl)cc3n2C2O[C@H](CO)[C@@H](O)[C@H]2O)cc1", "note": "(some centres not stated)", "values": [{"measurement": "IC50", "setting": "Human alphaherpesvirus 1", "result": "> 100", "unit": "µM"}, {"measurement": "IC50", "setting": "Human betaherpesvirus 5 [1]", "result": 40, "unit": "µM"}, {"measurement": "IC50", "setting": "KB", "result": 41, "unit": "µM"}, {"measurement": "IC50", "setting": "HFF cells (Homo sapiens)", "result": 66, "unit": "µM"}]}, {"compound": "OC[C@H]1OC(n2c(SCc3cccc(C(F)(F)F)c3)nc3cc(Cl)c(Cl)cc32)[C@H](O)[C@@H]1O", "note": "(some centres not stated)", "values": [{"measurement": "IC50", "setting": "Human alphaherpesvirus 1", "result": 40, "unit": "µM"}, {"measurement": "IC50", "setting": "Human betaherpesvirus 5 [1]", "result": 40, "unit": "µM"}, {"measurement": "IC50", "setting": "KB", "result": 15, "unit": "µM"}, {"measurement": "IC50", "setting": "HFF cells (Homo sapiens)", "result": 32, "unit": "µM"}]}, {"compound": "OC[C@H]1OC(n2c(SCc3ccccc3Cl)nc3cc(Cl)c(Cl)cc32)[C@H](O)[C@@H]1O", "note": "(some centres not stated)", "values": [{"measurement": "IC50", "setting": "Human alphaherpesvirus 1", "result": 60, "unit": "µM"}, {"measurement": "IC50", "setting": "Human betaherpesvirus 5 [1]", "result": 40, "unit": "µM"}, {"measurement": "IC50", "setting": "KB", "result": 30, "unit": "µM"}, {"measurement": "IC50", "setting": "HFF cells (Homo sapiens)", "result": 32, "unit": "µM"}]}, {"compound": "CC(C)(C)c1ccc(CSc2nc3cc(Cl)c(Cl)cc3n2C2O[C@H](CO)[C@@H](O)[C@H]2O)cc1", "note": "(some centres not stated)", "values": [{"measurement": "IC50", "setting": "Human alphaherpesvirus 1", "result": 20, "unit": "µM"}, {"measurement": "IC50", "setting": "Human betaherpesvirus 5 [1]", "result": 20, "unit": "µM"}, {"measurement": "IC50", "setting": "KB", "result": 50, "unit": "µM"}, {"measurement": "IC50", "setting": "HFF cells (Homo sapiens)", "result": 32, "unit": "µM"}]}, {"compound": "CS(=O)(=O)c1nc2cc(Cl)c(Cl)cc2n1C1O[C@H](CO)[C@@H](O)[C@H]1O", "note": "(some centres not stated)", "values": [{"measurement": "IC50", "setting": "Human betaherpesvirus 5 [1]", "result": 10, "unit": "µM"}, {"measurement": "IC50", "setting": "HFF cells (Homo sapiens)", "result": 10, "unit": "µM"}]}, {"compound": "OC[C@H]1OC(n2c(SCc3ccc(F)cc3)nc3cc(Cl)c(Cl)cc32)[C@H](O)[C@@H]1O", "note": "(some centres not stated)", "values": [{"measurement": "IC50", "setting": "Human alphaherpesvirus 1", "result": "> 30", "unit": "µM"}, {"measurement": "IC50", "setting": "Human betaherpesvirus 5 [1]", "result": 30, "unit": "µM"}, {"measurement": "IC50", "setting": "HFF cells (Homo sapiens)", "result": 21, "unit": "µM"}]}, {"compound": "N#CCSc1nc2cc(Cl)c(Cl)cc2n1C1O[C@H](CO)[C@@H](O)[C@H]1O", "note": "(some centres not stated)", "values": [{"measurement": "IC50", "setting": "Human alphaherpesvirus 1", "result": "> 100", "unit": "µM"}, {"measurement": "IC90", "setting": "Human betaherpesvirus 5 [2]", "result": 10, "unit": "µM"}, {"measurement": "IC50", "setting": "Human betaherpesvirus 5 [1]", "result": 30, "unit": "µM"}, {"measurement": "IC50", "setting": "KB", "result": "> 100", "unit": "µM"}, {"measurement": "IC50", "setting": "HFF cells (Homo sapiens)", "result": 100, "unit": "µM"}]}, {"compound": "Cc1ccc(CSc2nc3cc(Cl)c(Cl)cc3n2C2O[C@H](CO)[C@@H](O)[C@H]2O)cc1", "note": "(some centres not stated)", "values": [{"measurement": "IC50", "setting": "Human alphaherpesvirus 1", "result": "> 30", "unit": "µM"}, {"measurement": "IC50", "setting": "Human betaherpesvirus 5 [1]", "result": 30, "unit": "µM"}, {"measurement": "IC50", "setting": "HFF cells (Homo sapiens)", "result": 32, "unit": "µM"}]}, {"compound": "Cc1cccc(CSc2nc3cc(Cl)c(Cl)cc3n2C2O[C@H](CO)[C@@H](O)[C@H]2O)c1", "note": "(some centres not stated)", "values": [{"measurement": "IC50", "setting": "Human alphaherpesvirus 1", "result": 38, "unit": "µM"}, {"measurement": "IC50", "setting": "Human betaherpesvirus 5 [1]", "result": 40, "unit": "µM"}, {"measurement": "IC50", "setting": "KB", "result": 30, "unit": "µM"}, {"measurement": "IC50", "setting": "HFF cells (Homo sapiens)", "result": 32, "unit": "µM"}]}, {"compound": "C=CCSc1nc2cc(Cl)c(Cl)cc2n1C1O[C@H](CO)[C@@H](O)[C@H]1O", "note": "(some centres not stated)", "values": [{"measurement": "IC50", "setting": "Human alphaherpesvirus 1", "result": "> 100", "unit": "µM"}, {"measurement": "IC50", "setting": "Human betaherpesvirus 5 [1]", "result": "> 100", "unit": "µM"}, {"measurement": "IC50", "setting": "KB", "result": 68, "unit": "µM"}, {"measurement": "IC50", "setting": "HFF cells (Homo sapiens)", "result": 24, "unit": "µM"}]}, {"compound": "O=[N+]([O-])c1ccc(CSc2nc3cc(Cl)c(Cl)cc3n2C2O[C@H](CO)[C@@H](O)[C@H]2O)cc1", "note": "(some centres not stated)", "values": [{"measurement": "IC50", "setting": "Human alphaherpesvirus 1", "result": 40, "unit": "µM"}, {"measurement": "IC50", "setting": "Human betaherpesvirus 5 [1]", "result": 40, "unit": "µM"}, {"measurement": "IC50", "setting": "KB", "result": 30, "unit": "µM"}, {"measurement": "IC50", "setting": "HFF cells (Homo sapiens)", "result": 32, "unit": "µM"}]}, {"compound": "OC[C@H]1OC(n2c(SCc3ccc(Cl)cc3)nc3cc(Cl)c(Cl)cc32)[C@H](O)[C@@H]1O", "note": "(some centres not stated)", "values": [{"measurement": "IC50", "setting": "Human alphaherpesvirus 1", "result": "> 30", "unit": "µM"}, {"measurement": "IC50", "setting": "Human betaherpesvirus 5 [1]", "result": "> 100", "unit": "µM"}, {"measurement": "IC50", "setting": "HFF cells (Homo sapiens)", "result": 100, "unit": "µM"}]}, {"compound": "OC[C@H]1OC(n2c(SCc3cccc(Cl)c3)nc3cc(Cl)c(Cl)cc32)[C@H](O)[C@@H]1O", "note": "(some centres not stated)", "values": [{"measurement": "IC50", "setting": "Human alphaherpesvirus 1", "result": 70, "unit": "µM"}, {"measurement": "IC50", "setting": "Human betaherpesvirus 5 [1]", "result": 25, "unit": "µM"}, {"measurement": "IC50", "setting": "KB", "result": 19, "unit": "µM"}, {"measurement": "IC50", "setting": "HFF cells (Homo sapiens)", "result": 21, "unit": "µM"}]}, {"compound": "Nc1nc2c(ncn2COCCO)c(=O)[nH]1", "note": "[ACYCLOVIR]", "values": [{"measurement": "IC50", "setting": "Human alphaherpesvirus 1", "result": 1.7, "unit": "µM"}, {"measurement": "IC90", "setting": "Human betaherpesvirus 5 [2]", "result": 85, "unit": "µM"}, {"measurement": "IC50", "setting": "Human betaherpesvirus 5 [1]", "result": 86, "unit": "µM"}, {"measurement": "IC50", "setting": "KB", "result": "> 100", "unit": "µM"}, {"measurement": "IC50", "setting": "HFF cells (Homo sapiens)", "result": "> 100", "unit": "µM"}]}, {"compound": "OC[C@H]1O[C@@H](n2cnc3cc(Cl)c(Cl)cc32)[C@H](O)[C@@H]1O", "note": "[DICHLORORIBOBENZIMIDAZOLE]", "values": [{"measurement": "IC50", "setting": "Human alphaherpesvirus 1", "result": 30, "unit": "µM"}, {"measurement": "IC90", "setting": "Human betaherpesvirus 5 [2]", "result": 19, "unit": "µM"}, {"measurement": "IC50", "setting": "Human betaherpesvirus 5 [1]", "result": 42, "unit": "µM"}, {"measurement": "IC50", "setting": "KB", "result": 100, "unit": "µM"}, {"measurement": "IC50", "setting": "HFF cells (Homo sapiens)", "result": 24, "unit": "µM"}]}, {"compound": "O=C(O)P(=O)(O)O", "note": "[FOSCARNET]", "values": [{"measurement": "IC50", "setting": "Human betaherpesvirus 5 [1]", "result": 39, "unit": "µM"}, {"measurement": "IC50", "setting": "HFF cells (Homo sapiens)", "result": "> 100", "unit": "µM"}]}, {"compound": "Nc1nc2c(ncn2COC(CO)CO)c(=O)[nH]1", "note": "[GANCICLOVIR]", "values": [{"measurement": "IC90", "setting": "Human betaherpesvirus 5 [2]", "result": 1.6, "unit": "µM"}, {"measurement": "IC50", "setting": "Human betaherpesvirus 5 [1]", "result": 7.4, "unit": "µM"}, {"measurement": "IC50", "setting": "HFF cells (Homo sapiens)", "result": "> 100", "unit": "µM"}]}]}
